A compilation of properties of binary mixtures (doi:10.1021/acs.jced.2c00096)

Test: xn = mol fraction of the nth substance listed
Details: 100 kPa

CCCC[N+]1(C)CCCC1.O=S(=O)([O-])C(F)(F)F + O
Details	electrical conductivity [S/m]	viscosity [mPa·s]
288.15 K, x2 = 0.1203	0.173	196
288.15 K, x2 = 0.1956	0.21	151.5
288.15 K, x2 = 0.4836	0.458	56.8
288.15 K, x2 = 0.5819	0.603	40.25
288.15 K, x2 = 0.6794	0.78	27.75
288.15 K, x2 = 0.8612	1.43	10.36
288.15 K, x2 = 0.95	1.75	3.99
293.15 K, x2 = 0.0597	0.188	181.1
293.15 K, x2 = 0.1203	0.22	148.6
293.15 K, x2 = 0.1956	0.266	116.3
293.15 K, x2 = 0.3766	0.426	64.1
293.15 K, x2 = 0.4836	0.563	45
293.15 K, x2 = 0.5819	0.732	32.19
293.15 K, x2 = 0.6794	0.954	22.37
293.15 K, x2 = 0.7673	1.26	15.18
293.15 K, x2 = 0.95	2.07	3.36
298.15 K, x2 = 0.1203	0.276	114.9
298.15 K, x2 = 0.1956	0.334	91
298.15 K, x2 = 0.3197	0.453	61.1
298.15 K, x2 = 0.4836	0.68	36.38
298.15 K, x2 = 0.5819	0.886	26.17
298.15 K, x2 = 0.8612	2.04	7.14
303.15 K, x2 = 0.0597	0.299	108.4
303.15 K, x2 = 0.1203	0.343	90.6
303.15 K, x2 = 0.1956	0.406	72.5
303.15 K, x2 = 0.3197	0.545	49.4
303.15 K, x2 = 0.4836	0.808	29.8
303.15 K, x2 = 0.5819	1.04	21.59
303.15 K, x2 = 0.6794	1.37	15.22
303.15 K, x2 = 0.7673	1.79	10.5
303.15 K, x2 = 0.8612	2.38	6.05
308.15 K, x2 = 0.0597	0.364	86.1
308.15 K, x2 = 0.1956	0.488	58.6
308.15 K, x2 = 0.3197	0.647	40.48
308.15 K, x2 = 0.4836	0.953	24.76
308.15 K, x2 = 0.5819	1.23	18.04
308.15 K, x2 = 0.6794	1.6	12.8
308.15 K, x2 = 0.7673	2.08	8.89
308.15 K, x2 = 0.8612	2.77	5.14
308.15 K, x2 = 0.95	3.16	2.17
313.15 K, x2 = 0.0597	0.435	69.4
313.15 K, x2 = 0.1203	0.497	58.9
313.15 K, x2 = 0.3197	0.76	33.61
313.15 K, x2 = 0.3766	0.866	28.63
313.15 K, x2 = 0.4836	1.11	20.81
313.15 K, x2 = 0.6794	1.86	10.89
313.15 K, x2 = 0.7673	2.4	7.6
313.15 K, x2 = 0.8612	3.17	4.47
313.15 K, x2 = 0.95	3.56	1.91
318.15 K, x2 = 0.0597	0.52	56.7
318.15 K, x2 = 0.1956	0.68	39.82
318.15 K, x2 = 0.3766	1.01	24.15
318.15 K, x2 = 0.4836	1.28	17.69
318.15 K, x2 = 0.5819	1.63	13.03
318.15 K, x2 = 0.6794	2.14	9.36
318.15 K, x2 = 0.7673	2.75	6.57
318.15 K, x2 = 0.8612	3.61	3.9
318.15 K, x2 = 0.95	4	1.7
323.15 K, x2 = 0.1203	0.686	40.38
323.15 K, x2 = 0.3197	1.03	23.95
323.15 K, x2 = 0.3766	1.16	20.59
323.15 K, x2 = 0.4836	1.47	15.18
323.15 K, x2 = 0.7673	3.11	5.73
323.15 K, x2 = 0.8612	4.06	3.43
328.15 K, x2 = 0.0597	0.713	39.32
328.15 K, x2 = 0.1203	0.796	34.03
328.15 K, x2 = 0.1956	0.921	28.34
328.15 K, x2 = 0.3197	1.17	20.52
328.15 K, x2 = 0.4836	1.67	13.15
328.15 K, x2 = 0.5819	2.12	9.79
328.15 K, x2 = 0.6794	2.76	7.1
328.15 K, x2 = 0.7673	3.5	5.04
328.15 K, x2 = 0.8612	4.55	3.04
328.15 K, x2 = 0.95	4.93	1.37
333.15 K, x2 = 0.0597	0.83	33.27
333.15 K, x2 = 0.1203	0.918	28.94
333.15 K, x2 = 0.1956	1.05	24.27
333.15 K, x2 = 0.3197	1.33	17.75
333.15 K, x2 = 0.3766	1.48	15.39
333.15 K, x2 = 0.4836	1.88	11.49
333.15 K, x2 = 0.6794	3.09	6.26
333.15 K, x2 = 0.7673	3.91	4.46
333.15 K, x2 = 0.8612	5.05	2.71
333.15 K, x2 = 0.95	5.42	1.24
